Results as given in patent publication US5840728A, “Conformationally locked nucleoside analogs as antiherpetic agents” (priority 1997, dated 1998).
Converted amounts (≈) assume the structure as drawn. “And” between values parts separate entries of the source, which are not always exact repeats. Equal entries are not always repeated. Where two headings read alike, the source gives them in different places.

What was measured:
[1] = system: HSV-1 (herpes simplex type 1); experiment: microbe, parasite or virus in culture
Source text: (§1) Compounds 25 and 26 are (S)-methanocarba-T and (±)-(carba-T), respectively. (±)-carba-T was kindly provided by Dr. Y. Fulmer Shealy, Southern Research Institute, Birmingham, Ala. [drawing 5]

[2] = system: HSV-2 (herpes simplex type 2); experiment: microbe, parasite or virus in culture
Source text: as §1

[3] = Cytotoxicity in growing (rapidly dividing) HFF; assay type: cell-based, human; conditions: human, growing hff cells
[4] = Cytotoxicity in host cells / stationary cells (HFF); assay type: cell-based, human; conditions: human, hff cells
Source text: (§2) ^d CC50 = cytotoxic concentration in μg/mL that produces 50%

herpes viruses = experiment: Antiherpetic activity, overall; assay type: cell-based; conditions: in words
[5] = system: HCMV (human cytomegalovirus); experiment: microbe, parasite or virus in culture; assay type: cell-based
Source text: | ^f plaque reduction assay.

[6] = system: HCMV (human cytomegalovirus); experiment: microbe, parasite or virus in culture; assay type: cell-based; conditions: for EC50: Human betaherpesvirus 5, Table 5, HCMV, read-out: EC50
[7] = system: HFF (human foreskin fibroblasts); experiment: Cytotoxicity in host cells / stationary cells (HFF); assay type: cell-based; conditions: Table 5; host cell not given
Source text: as §2

EBV (Epstein-Barr virus) = experiment: microbe, parasite or virus in culture; assay type: cell-based; conditions: human gammaherpesvirus 4, EBV
Source text: as §1

[8] = Human alphaherpesvirus 1, Table 5, HSV-1
[9] = Human alphaherpesvirus 2, Table 5, HSV-2

Row | Structure (SMILES) | SI (CC50/EC50) [1] | SI (CC50/EC50) [2] | EC50 [1, 8] [µg/mL] | EC50 [2, 9] [µg/mL] | SI (CC50/EC50) [6] | EC50 [6] [µg/mL] | CC50 ([4]; Table 5, host cell not given) [µg/mL] | other results
1 | Cc1cn([C@@H]2C[C@H](CO)[C@@H](O)C2)c(=O)[nH]c1=O (relative stereo) [Compound 26, (±)-(carba-T), reference compound] | 1 | 1 |  |  |  |  |  | EC50 ([1]; Human alphaherpesvirus 1, Table 4, HSV-1, plaques reduced by 50%): > 10 µg/mL; EC50 ([2]; Human alphaherpesvirus 2, Table 4, HSV-2, plaques reduced by 50%): > 10 µg/mL; CC50 ([3]; rapidly dividing cells, read-out: CC50): 0.65 µg/mL (≈ 2.71 µM); CC50 ([4]; Table 4, HSV-1 and HSV-2 lines, host cell not given): > 10 µg/mL; CC50 ([4]; stationary cells): > 100 µg/mL; antiherpetic activity (herpes viruses): did not exhibit antiherpetic activity
2 | Nc1ncnc2c1ncn2[C@@]12C[C@H](O)[C@@H](CO)[C@@H]1C2 [(S)-DMC-A, reference compound] | 1 | 1 | > 100 | > 100 | > 15.6 | 6.4 (≈ 24.5 µM) | > 100 | EC50 ([5]; Human betaherpesvirus 5, Table 5, HCMV, plaque reduction assay, read-out: EC50): 2.4 µg/mL (≈ 9.19 µM); SI (CC50/EC50) ([5]; human foreskin fibroblasts): > 41.7; activity against HCMV ([6]; in words): active against HCMV
3 | Nc1ccn([C@@]23C[C@H](O)[C@@H](CO)[C@@H]2C3)c(=O)n1 [(S)-DMC-C, reference compound] | < 3.7 | < 3.7 | > 4 | > 4 | > 1.1 | 88.9 (≈ 375 µM) |  | 
4 | Nc1nc2c(ncn2[C@@]23C[C@H](O)[C@@H](CO)[C@@H]2C3)c(=O)[nH]1 [(S)-DMC-G, reference compound] | < 3.7 | < 3.7 | > 20 | > 20 | < 2.3 | > 20 |  | 
5 | O=c1ccn([C@@]23C[C@H](O)[C@@H](CO)[C@@H]2C3)c(=O)[nH]1 [(S)-DMC-U, reference compound] | < 3.0 | < 3.0 | > 20 | > 20 | 1 | > 100 | 59.1 (≈ 248 µM) | CC50 [7]: > 100 µg/mL
6 | Nc1nc2c(ncn2COCCO)c(=O)[nH]1 [ACV, acyclovir, reference compound] |  |  |  |  |  |  |  | EC50 ([1]; Human alphaherpesvirus 1, read-out: ACV (EC50), Table 4, HSV-1, acyclovir control): 0.3 µg/mL (≈ 1.33 µM); EC50 ([1]; Human alphaherpesvirus 1, read-out: Positive Control EC50, Table 3, HSV-1, HFF, positive control): 0.8 µg/mL (≈ 3.55 µM); ACV (EC50) ([1]; Table 4, HSV-1, acyclovir control): 0.15 µg/mL; Control EC50 ([1]; Table 5, HSV-1, control): 0.20 µg/mL; EC50 ([2]; Human alphaherpesvirus 2, read-out: ACV (EC50), Table 4, HSV-2, acyclovir control): 0.8 µg/mL (≈ 3.55 µM); EC50 ([2]; Human alphaherpesvirus 2, read-out: Positive Control EC50, Table 3, HSV-2, HFF, positive control): 4 µg/mL (≈ 17.8 µM); ACV (EC50) ([2]; Table 4, HSV-2, acyclovir control): 0.60 µg/mL; Control EC50 ([2]; Table 5, HSV-2, control): 1.8 µg/mL and 1.5 µg/mL; CC50 ([3]; Table 3, no virus, Growing HFF, positive control, read-out: Positive Control EC50 (line Growing HFF)): 40 µg/mL (≈ 178 µM); EC50 (EBV (Epstein-Barr virus); Table 3, Daudi, positive control, read-out: Positive Control EC50): 0.1 µg/mL (≈ 0.444 µM); EC50 (EBV (Epstein-Barr virus); Table 4, acyclovir control, read-out: ACV (EC50)): 0.1 µg/mL (≈ 0.444 µM)
